According to article PMC9744894, “An optimized antimicrobial peptide analog acts as an antibiotic adjuvant to reverse methicillin-resistant Staphylococcus aureus” (NPJ Science of Food, 2022):
Converted amounts (≈) assume the structure as drawn. Where two headings read alike, the source gives them in different places. No end group written: not given here.

Tests used:
[1] = system: Salmonella enterica CMCC 50335; conditions: MHB, 37 °C, 18 h
Protocol: (§1) The minimum inhibitory concentration (MIC) was adopted to measure the antimicrobial spectrum of AMPs[42]. Specifically, experiments were executed by broth microdilution method in a 96-well plate (Corning) with an initial inoculum of 1.5 × 10^6 Colony-Forming units (CFU) mL^−1 in MHB based on Clinical and Laboratory Standards Institute (CLSI) guidelines. Inoculums were bacteria in the Mid-Logarithmic phase. To prevent edge effects, 96-well plates were placed in a constant temperature incubator (TSQ-280, Jianuo, China) at 37 °C. After 18 h of incubation, a microplate reader (SpectraMax i3, Molecular Devices, USA) was applied to determine the OD600 value of the plates. […] Simultaneously, the number of inactivated bacteria treated with different drugs was quantitatively determined by flow cytometry (BD Accuri C6 Plus, USA) combined with […] propidium iodide (PI, Thermo Fisher Scientific, USA)[43].

[2] = system: Shigella flexneri CMCC 51571; conditions: MHB, 37 °C, 18 h
Protocol: as §1

[3] = system: Shigella flexneri CMCC 51572; conditions: MHB, 37 °C, 18 h
Protocol: as §1

[4] = system: Shigella sonnei CMCC 51592; conditions: MHB, 37 °C, 18 h
Protocol: as §1

[5] = system: methicillin-resistant Staphylococcus aureus ATCC 43300
[6] = system: Escherichia coli CMCC44102
[7] = system: Escherichia coli CMCC 44817
[8] = system: Escherichia coli ATCC 8739
[9] = system: Shigalla Dysenteria CMCC 51252; conditions: CMCC 51252, 18 h
[10] = system: Bacillus cereus CMCC 63301
[11] = system: Bacillus pumilus CMCC 63202
[12] = system: Staphylococcus aureus ATCC 29213
[13] = system: Staphylococcus aureus CMCC 26003
[14] = system: Staphylococcus aureus ATCC 12600
[15] = system: Staphylococcus aureus ATCC 6538
MRSA (ATCC 43300) [16] = conditions: chessboard with APC, MRSA ATCC 43300, 18 h; synergy defined as FIC index ≤ 0.5
mouse blood cells = assay type: cell-based, mice
Protocol: Blood cells taken from mice (ICR, male, 30–35 g) were treated with different concentrations of AMPs for 1 h. Meanwhile, Triton X-100 (0.2%) and phosphate-buffered saline (PBS, 0.01 moL^−1, pH 7.4) were used as positive and negative controls, respectively. After the reaction was completed, the OD576 value of each tube sample was determined and the hemolysis rate was calculated using the formula below[44],[45]:1 Hemolysisrate(%)=[(OD576sample−OD576blank)/(OD576TritonX−100−OD576blank)]×100%

[17] = system: pepsin, papain, and trypsin; assay type: in vitro ADME; conditions: pH 7.4
Protocol: AMPs were exposed to proteases (including pepsin, papain, and trypsin) dissolved in PBS (pH 7.4) at 37 °C for 12 h. Subsequently, proteases in AMPs were inactivated by high-temperature treatment (95 °C, 5 min) and the activity of treated AMPs against MRSA (ATCC 43300) was determined. AMPs dissolved in PBS without proteases were used as controls.

MRSA (ATCC 43300) [18] = experiment: Killing kinetics / growth inhibition; assay type: cell-based, Staphylococcus aureus; conditions: PIS-A-1 1/4 MIC or APC 1/8 MIC alone; OD600, 37 °C
Protocol: Likewise, the killing kinetics of antimicrobial agents against bacteria was tested. Briefly, 100 μL of antimicrobial agents were diluted two-fold in 96-well plates. Then, 100 μL of bacterial inoculum (1.5 × 10^6 CFU mL^−1) was appended and incubated at 37 °C. At a fixed time, the OD600 value of each well in the plate was measured by using a microplate reader (SpectraMax i3, Molecular Devices, USA).

[19] = system: methicillin-resistant Staphylococcus aureus ATCC 43300; experiment: microbe, parasite or virus in culture; conditions: ATCC43300 / MRSA, 18 h
Caco-2 cells = experiment: Cytotoxicity, MTT assay; conditions: Caco-2, MTT; 64 μg/mL (concentration for PIS-1 and PIS-3 implied by context); mean ± SD, n = 3
Protocol: Caco-2 cells cultured with RPMI 1640 medium (containing 10% FBS and 1% penicillin-streptomycin) were incubated in a humidified CO2 (5%) atmosphere. Next, trypsin-treated cells (0.25%) were seeded in 96-well plates at a density of 5,000 per well and incubated for 24 h. Finally, cell viability of each well with fresh medium was tested by MTT assay.

Question: “FFHHIFRGIVHVGKTIHRLVTG [PIS-1] [listing 1 of 2 here]” was tested. Which MIC [1] did it give?
Answer: 16 µg/mL

Question: What about the MIC [2] of the same molecule?
Answer: 8 µg/mL

Question: What about the MIC [3] of the same molecule?
Answer: 8 µg/mL

Question: What about the MIC [4] of the same molecule?
Answer: 8 µg/mL

Question: What about the MIC ([5]; MRSA ATCC 43300, broth microdilution in MHB, 1.5 × 10^6 CFU mL^−1, 37 °C, 18 h, OD600) of the same molecule?
Answer: 16 µg/mL

Question: And the MIC ([6]; Escherichia coli CMCC44102, first listing in Supplementary table 1, MHB, 37 °C, 18 h)?
Answer: 16 µg/mL

Question: What about the MIC ([6]; Escherichia coli CMCC 44102, second listing in Supplementary table 1, MHB, 37 °C, 18 h) of the same molecule?
Answer: 4 µg/mL

Question: What about the MIC ([7]; Escherichia coli CMCC 44817, MHB, 37 °C, 18 h) of the same molecule?
Answer: 16 µg/mL

Question: What about the MIC ([8]; Escherichia coli ATCC 8739, first listing in Supplementary table 1, MHB, 37 °C, 18 h) of the same molecule?
Answer: 8 µg/mL

Question: What about the MIC ([8]; Escherichia coli ATCC 8739, second listing in Supplementary table 1, MHB, 37 °C, 18 h) of the same molecule?
Answer: 8 µg/mL

Question: What about the MIC [9] of the same molecule?
Answer: 16 µg/mL

Question: What about the MIC ([10]; Bacillus cereus CMCC 63301, MHB, 37 °C, 18 h) of the same molecule?
Answer: 16 µg/mL

Question: And the MIC ([11]; Bacillus pumilus CMCC 63202, MHB, 37 °C, 18 h)?
Answer: 16 µg/mL

Question: And the MIC ([12]; Staphylococcus aureus ATCC 29213, MHB, 37 °C, 18 h)?
Answer: 8 µg/mL

Question: And the MIC ([13]; Staphylococcus aureus CMCC 26003, MHB, 37 °C, 18 h)?
Answer: 16 µg/mL

Question: What about the MIC ([14]; Staphylococcus aureus ATCC 12600, MHB, 37 °C, 18 h) of the same molecule?
Answer: 8 µg/mL

Question: What about the MIC ([15]; Staphylococcus aureus ATCC 6538, MHB, 37 °C, 18 h) of the same molecule?
Answer: 8 µg/mL

Question: And the MIC (MRSA N315; MRSA N315, MHB, 37 °C, 18 h)?
Answer: 8 µg/mL

Question: What about the “MIC against Staphylococcus aureus” value (Staphylococcus aureus; range over Staphylococcus aureus strains) of the same molecule?
Answer: 8~16 μg/mL

Question: What about the “FIC (FIC index) with APC” value (MRSA (ATCC 43300) [16]) of the same molecule?
Answer: 0.31

Question: For GIVHAGRSIGRFLTG [PIS-A-7], which MIC ([5]; ATCC 43300, 18 h) is on record?
Answer: ≥64 µg/mL

Question: FIHHIFRGIVHAGRSIGRFLTG [PIS-3] was tested. Which MIC ([5]; ATCC 43300, 18 h) did it give?
Answer: 32 µg/mL

Question: What about the MIC ([6]; CMCC44102, 18 h) of the same molecule?
Answer: 16 µg/mL

Question: What about the MIC ([7]; CMCC 44817, 18 h) of the same molecule?
Answer: 16 µg/mL

Question: What about the MIC ([8]; ATCC 8739, 18 h) of the same molecule?
Answer: 8 µg/mL

Question: What about the MIC [9] of the same molecule?
Answer: 32 µg/mL

Question: What about the MIC ([10]; CMCC 63301, 18 h) of the same molecule?
Answer: 16 µg/mL

Question: What about the MIC ([11]; CMCC 63202, 18 h) of the same molecule?
Answer: 16 µg/mL

Question: What about the MIC ([12]; ATCC 29213, 18 h) of the same molecule?
Answer: 16 µg/mL

Question: What about the MIC ([13]; CMCC 26003, 18 h) of the same molecule?
Answer: 32 µg/mL

Question: And the MIC ([14]; ATCC 12600, 18 h)?
Answer: 16 µg/mL

Question: And the MIC ([15]; ATCC 6538, 18 h)?
Answer: 16 µg/mL

Question: What about the MIC (MRSA N315; N315, 18 h) of the same molecule?
Answer: 16 µg/mL

Question: Which MIC ([5]; ATCC 43300, 18 h) does the source give for FIHHIFRGIVHVGRS [PIS-A-4] here?
Answer: 32 µg/mL

Question: With FIHHIFRGIVHLGRSIGRFLTG [PIS-A-2] as the molecule, how does the MIC ([5]; ATCC 43300, 18 h) read?
Answer: 16 µg/mL

Question: Which MIC [1] does the source give for FIHHIFRGIVHVGRSIGRFLTG [PIS-A-1] here?
Answer: 16 µg/mL

Question: And the MIC [2]?
Answer: 8 µg/mL

Question: And the MIC [3]?
Answer: 16 µg/mL

Question: What about the MIC [4] of the same molecule?
Answer: 16 µg/mL

Question: And the “hemolysis at its MIC” value (mouse blood cells)?
Answer: did not induce minimal hemolysis

Question: And the “HC50 (minimum AMP concentration producing 50% hemolysis of red blood cells)” value (mouse blood cells; red cells of mouse, 1 h)?
Answer: 64 µg/mL

Question: And the “resistance to enzymatic degradation (change of MIC against MRSA after protease treatment)” value [17]?
Answer: least affected by enzymatic degradation

Question: And the MIC ([5]; ATCC 43300, 18 h)?
Answer: 8 µg/mL

Question: And the MIC ([7]; CMCC 44817, 18 h)?
Answer: 16 µg/mL

Question: What about the MIC ([8]; ATCC 8739, 18 h) of the same molecule?
Answer: 8 µg/mL

Question: What about the MIC [9] of the same molecule?
Answer: 16 µg/mL

Question: And the MIC ([10]; CMCC 63301, 18 h)?
Answer: 8 µg/mL

Question: What about the MIC ([11]; CMCC 63202, 18 h) of the same molecule?
Answer: 16 µg/mL

Question: What about the MIC ([12]; ATCC 29213, 18 h) of the same molecule?
Answer: 8 µg/mL

Question: And the MIC ([13]; CMCC 26003, 18 h)?
Answer: 16 µg/mL

Question: What about the MIC ([14]; ATCC 12600, 18 h) of the same molecule?
Answer: 8 µg/mL

Question: What about the MIC ([15]; ATCC 6538, 18 h) of the same molecule?
Answer: 8 µg/mL

Question: What about the MIC (MRSA N315; N315, 18 h) of the same molecule?
Answer: 8 µg/mL

Question: What about the “MIC against Staphylococcus aureus” value (Staphylococcus aureus; 18 h) of the same molecule?
Answer: 8~16 μg/mL

Question: What about the “FIC (FIC index) with APC” value (MRSA (ATCC 43300) [16]) of the same molecule?
Answer: 0.19

Question: For GIVHAG [PIS-A-6], which MIC ([5]; ATCC 43300, 18 h) is on record?
Answer: ≥64 µg/mL

Question: Which “bactericidal activity in growth inhibition experiment, applied separately” value (MRSA (ATCC 43300) [18]) does the source give for `CC1(C)S[C@@H]2[C@H](NC(=O)[C@H](N)c3ccccc3)C(=O)N2[C@H]1C(=O)O` [APC, Ampicillin] here?
Answer: no bactericidal activity

Question: And the MIC [19]?
Answer: 16 µg/mL (≈ 45.8 µM)

Question: With FIHHIFRGIVHVGRSIG [PIS-A-3] as the molecule, how does the MIC ([5]; ATCC 43300, 18 h) read?
Answer: 32 µg/mL

Question: With FIHHIFRGIVHAG [PIS-A-5] as the molecule, how does the MIC ([5]; ATCC 43300, 18 h) read?
Answer: ≥64 µg/mL

Question: Which cell viability (Caco-2 cells) does the source give for “FFHHIFRGIVHVGKTIHRLVTG [PIS-1] [listing 2 of 2 here]” here?
Answer: 3.64 ± 0.79%

Question: Which MIC [19] does the source give for `CN[C@H](CC(C)C)C(=O)N[C@H]1C(=O)N[C@@H](CC(N)=O)C(=O)N[C@H]2C(=O)N[C@H]3C(=O)N[C@H](C(=O)N[C@H](C(=O)O)c4cc(O)cc(O)c4-c4cc3ccc4O)[C@H](O)c3ccc(c(Cl)c3)Oc3cc2cc(c3O[C@@H]2O[C@H](CO)[C@@H](O)[C@H](O)[C@H]2O[C@H]2C[C@](C)(N)[C@H](O)[C@H](C)O2)Oc2ccc(cc2Cl)[C@H]1O` [VAN, vancomycin] here?
Answer: 0.25 µg/mL (≈ 0.173 µM)
